In general, inhibition refers to the share of the control response that was lost under treatment.

Each structure is given as a SMILES string.

This experiment has as its target T1, chimeric human H3 receptor (Homo sapiens, UniProt Q9Y5N1).
T1 construct: rat Galpha-i2 (Gnai2, rat); made in house; host or cells: Sf9 insect cells (baculovirus); P2 membranes
Put plainly: Chimeric human H3 receptor screening GTP binding assay (inhibition of histamine-stimulated GTP-gamma35S binding, Example 8). The class given is biochemical. Conditions: symbol ! in Ki; test compound 4 μM, 1 μM histamine; read-out: percent inhibition of agonist-induced GTP-gammaS binding to H3. The protocol: This Example illustrates a representative screening assay for evaluating inhibition of histamine-stimulated GTP-gamma^35S binding. Such GTP binding activity can be used to identify H3 antagonists and inverse agonists. A compound analyzed in this assay is referred to herein as a “test compound,” and the initial identification of antagonists and inverse agonists is performed using a test compound concentration of 4 μM.
Four independent baculoviral stocks (one directing the expression of the chimeric human H3 receptor and three directing the expression of each of the three subunits of a heterotrimeric G-protein) are used to infect a culture of Sƒ9 cells as described above. P2 membranes are prepared as described above, and are resuspended by Dounce homogenization (tight pestle) in GTP binding assay buffer (50 mM Tris pH 7.4, 120 mM NaCl, 5 mM MgCl2, 2 mM EGTA, 1 mg/ml BSA, 0.2 mg/ml bacitracin, 0.02 mg/ml aprotinin, 0.01 mg/ml saponin, 10 μM GDP) and added to assay tubes at a concentration of 35 μg protein/reaction tube. Non-radiolabeled test compounds are added to separate reactions at a concentration of 4 μM along with 1 μM histamine (agonist). Reactions are initiated by the addition of 125 pM GTP-gamma^35S with a final assay volume of 0.20 ml.
After a 60-min incubation at room temperature, reactions are terminated by vacuum filtration over GF/C filters (pre-soaked in 50 mM Tris pH 7.4, 120 mM NaCl plus 0.1% BSA) followed by washing with ice-cold buffer (50 mM Tris pH 7.4, 120 mM NaCl). The amount of receptor-bound (and thereby membrane-bound) GTP-gamma^35S is determined by measuring the bound radioactivity, preferably by liquid scintillation spectrometry of the washed filters. Non-specific binding is determined using 10 uM GTP-gammaS and typically represents less than 5 percent of total binding. After subtraction of non-specific binding, data is expressed as percent inhibition of 1 μM histamine signal.
Neutral antagonists are those test compounds that reduce the histamine-stimulated GTP binding activity towards, but not below, baseline levels. In contrast, in the absence of added histamine, inverse agonists reduce the GTP binding activity of the receptor-containing membranes below baseline. Any test compound that elevates GTP binding activity above baseline in the absence of added histamine in this assay is defined as having agonist activity.
(Binding of GTPγS marks nucleotide exchange on a G protein.)

T1 sequence (Q9Y5N1 with tags, fused parts or gaps): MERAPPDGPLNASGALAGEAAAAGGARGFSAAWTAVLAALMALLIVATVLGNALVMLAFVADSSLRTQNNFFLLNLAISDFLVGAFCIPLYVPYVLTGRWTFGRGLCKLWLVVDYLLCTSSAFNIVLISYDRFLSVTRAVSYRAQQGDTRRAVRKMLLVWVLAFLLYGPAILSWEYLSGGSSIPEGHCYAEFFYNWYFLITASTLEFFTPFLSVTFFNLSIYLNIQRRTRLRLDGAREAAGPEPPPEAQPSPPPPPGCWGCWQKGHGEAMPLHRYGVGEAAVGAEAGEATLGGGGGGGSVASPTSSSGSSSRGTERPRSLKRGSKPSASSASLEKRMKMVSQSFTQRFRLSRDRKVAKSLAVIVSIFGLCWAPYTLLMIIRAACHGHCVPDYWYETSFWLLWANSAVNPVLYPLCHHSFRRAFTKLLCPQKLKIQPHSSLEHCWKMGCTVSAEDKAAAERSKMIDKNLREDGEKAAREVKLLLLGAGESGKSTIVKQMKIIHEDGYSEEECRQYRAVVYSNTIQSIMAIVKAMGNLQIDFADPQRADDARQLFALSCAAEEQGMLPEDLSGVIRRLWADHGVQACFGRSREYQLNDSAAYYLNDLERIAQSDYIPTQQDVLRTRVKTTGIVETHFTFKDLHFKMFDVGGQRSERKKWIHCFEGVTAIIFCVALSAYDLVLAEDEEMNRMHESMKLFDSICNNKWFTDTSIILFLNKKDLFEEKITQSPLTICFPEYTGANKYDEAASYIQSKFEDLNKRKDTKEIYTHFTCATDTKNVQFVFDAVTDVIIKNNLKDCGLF

As to `Cc1ncccc1C(=O)N1CCc2c(ncnc2N2CCN(C3CCC3)CC2)C1` [Compound 38, 4-(4-cyclobutylpiperazin-1-yl)-7-[(2-methylpyridin-3-yl)carbonyl]-5,6,7,8-tetrahydropyrido[3,4-d]pyrimidine], the inhibition at 4 µM is at least 90%.

For the molecule `Cc1cc(C(=O)N2CCc3c(ncnc3N3CCN(C4CCC4)CC3)C2)nn1C` [Compound 39, 4-(4-cyclobutylpiperazin-1-yl)-7-[(1,5-dimethyl-1H-pyrazol-3-yl)carbonyl]-5,6,7,8-tetrahydropyrido[3,4-d]pyrimidine], the inhibition at 4 µM was at least 90%.

Regarding `CCn1nc(C)cc1C(=O)N1CCc2c(ncnc2N2CCN(C3CCC3)CC2)C1` [Compound 40, 4-(4-cyclobutylpiperazin-1-yl)-7-[(1-ethyl-3-methyl-1H-pyrazol-5-yl)carbonyl]-5,6,7,8-tetrahydropyrido[3,4-d]pyrimidine], the inhibition at 4 µM was at least 90%.

Turning to `CC(C)c1ccc(C(=O)N2CCc3c(ncnc3N3CCN(C4CCC4)CC3)C2)cc1` [Compound 41, 4-(4-cyclobutylpiperazin-1-yl)-7-(4-isopropylbenzoyl)-5,6,7,8-tetrahydropyrido[3,4-d]pyrimidine], the inhibition at 4 µM was at least 90%.

With `CCC(=O)N1CCc2c(ncnc2N2CCN(C3CCC3)CC2)C1` [Compound 42, 4-(4-cyclobutylpiperazin-1-yl)-7-propionyl-5,6,7,8-tetrahydropyrido[3,4-d]pyrimidine], the inhibition at 4 µM was at least 90%.

`CCCC(=O)N1CCc2c(ncnc2N2CCN(C3CCC3)CC2)C1` [Compound 43, 7-butyryl-4-(4-cyclobutylpiperazin-1-yl)-5,6,7,8-tetrahydropyrido[3,4-d]pyrimidine]: the inhibition at 4 µM was at least 90%.

On to `CCCCC(=O)N1CCc2c(ncnc2N2CCN(C3CCC3)CC2)C1` [Compound 44, 4-(4-cyclobutylpiperazin-1-yl)-7-pentanoyl-5,6,7,8-tetrahydropyrido[3,4-d]pyrimidine], for which the inhibition at 4 µM is at least 90%.

Regarding `CC(C)CC(=O)N1CCc2c(ncnc2N2CCN(C3CCC3)CC2)C1` [Compound 45, 4-(4-cyclobutylpiperazin-1-yl)-7-(3-methylbutanoyl)-5,6,7,8-tetrahydropyrido[3,4-d]pyrimidine], the inhibition at 4 µM is at least 90%.

For `CC(C)CCC(=O)N1CCc2c(ncnc2N2CCN(C3CCC3)CC2)C1` [Compound 46, 4-(4-cyclobutylpiperazin-1-yl)-7-(4-methylpentanoyl)-5,6,7,8-tetrahydropyrido[3,4-d]pyrimidine], the inhibition at 4 µM was at least 90%.

As to `O=C(CC1CCCC1)N1CCc2c(ncnc2N2CCN(C3CCC3)CC2)C1` [Compound 47, 4-(4-cyclobutylpiperazin-1-yl)-7-(cyclopentylacetyl)-5,6,7,8-tetrahydropyrido[3,4-d]pyrimidine], the inhibition at 4 µM is at least 90%.

Turning to `O=C(CC1CCCCC1)N1CCc2c(ncnc2N2CCN(C3CCC3)CC2)C1` [Compound 48, 4-(4-cyclobutylpiperazin-1-yl)-7-(cyclohexylacetyl)-5,6,7,8-tetrahydropyrido[3,4-d]pyrimidine], the inhibition at 4 µM was at least 90%.

Consider `O=C(CCC1CCCC1)N1CCc2c(ncnc2N2CCN(C3CCC3)CC2)C1` [Compound 49, 4-(4-cyclobutylpiperazin-1-yl)-7-(3-cyclopentylpropanoyl)-5,6,7,8-tetrahydropyrido[3,4-d]pyrimidine], for which the inhibition at 4 µM was at least 90%.

`O=C(Cc1ccccc1)N1CCc2c(ncnc2N2CCN(C3CCC3)CC2)C1` [Compound 50, 4-(4-cyclobutylpiperazin-1-yl)-7-(phenylacetyl)-5,6,7,8-tetrahydropyrido[3,4-d]pyrimidine]: the inhibition at 4 µM was at least 90%.

As to `COCCC(=O)N1CCc2c(ncnc2N2CCN(C3CCC3)CC2)C1` [Compound 51, 4-(4-cyclobutylpiperazin-1-yl)-7-(3-methoxypropanoyl)-5,6,7,8-tetrahydropyrido[3,4-d]pyrimidine], the inhibition at 4 µM was at least 90%.

For `O=C(C1CC1)N1CCc2c(ncnc2N2CCN(C3CCC3)CC2)C1` [Compound 52, 4-(4-cyclobutylpiperazin-1-yl)-7-(cyclopropylcarbonyl)-5,6,7,8-tetrahydropyrido[3,4-d]pyrimidine], the inhibition at 4 µM is at least 90%.

Regarding `O=C(C1CCC1)N1CCc2c(ncnc2N2CCN(C3CCC3)CC2)C1` [Compound 53, 7-(cyclobutylcarbonyl)-4-(4-cyclobutylpiperazin-1-yl)-5,6,7,8-tetrahydropyrido[3,4-d]pyrimidine], the inhibition at 4 µM was at least 90%.

Take `O=C(C1CCCC1)N1CCc2c(ncnc2N2CCN(C3CCC3)CC2)C1` [Compound 54, 4-(4-cyclobutylpiperazin-1-yl)-7-(cyclopentylcarbonyl)-5,6,7,8-tetrahydropyrido[3,4-d]pyrimidine]: the inhibition at 4 µM is at least 90%.

Regarding `O=C(C1CCCCC1)N1CCc2c(ncnc2N2CCN(C3CCC3)CC2)C1` [Compound 55, 4-(4-cyclobutylpiperazin-1-yl)-7-(cyclohexylcarbonyl)-5,6,7,8-tetrahydropyrido[3,4-d]pyrimidine], the inhibition at 4 µM is at least 90%.

With `O=C(C1CCCCCC1)N1CCc2c(ncnc2N2CCN(C3CCC3)CC2)C1` [Compound 56, 4-(4-cyclobutylpiperazin-1-yl)-7-(cycloheptylcarbonyl)-5,6,7,8-tetrahydropyrido[3,4-d]pyrimidine], the inhibition at 4 µM was at least 90%.

`O=C(C1CCCO1)N1CCc2c(ncnc2N2CCN(C3CCC3)CC2)C1` (centres unmarked) [Compound 57, 4-(4-cyclobutylpiperazin-1-yl)-7-(tetrahydrofuran-2-ylcarbonyl)-5,6,7,8-tetrahydropyrido[3,4-d]pyrimidine]: the inhibition at 4 µM was at least 90%.

As for `O=C(C1CCOC1)N1CCc2c(ncnc2N2CCN(C3CCC3)CC2)C1` (centres unmarked) [Compound 58, 4-(4-cyclobutylpiperazin-1-yl)-7-(tetrahydrofuran-3-ylcarbonyl)-5,6,7,8-tetrahydropyrido[3,4-d]pyrimidine], the inhibition at 4 µM is at least 90%.

`CC(C)C(=O)N1CCc2c(ncnc2N2CCN(C3CCC3)CC2)C1` [Compound 59, 4-(4-cyclobutylpiperazin-1-yl)-7-isobutyryl-5,6,7,8-tetrahydropyrido[3,4-d]pyrimidine]: the inhibition at 4 µM was at least 90%.

On to `CCC(C)C(=O)N1CCc2c(ncnc2N2CCN(C3CCC3)CC2)C1` (centres unmarked) [Compound 60, 4-(4-cyclobutylpiperazin-1-yl)-7-(2-methylbutanoyl)-5,6,7,8-tetrahydropyrido[3,4-d]pyrimidine], for which the inhibition at 4 µM was at least 90%.

As for `CCCC(C)C(=O)N1CCc2c(ncnc2N2CCN(C3CCC3)CC2)C1` (centres unmarked) [Compound 61, 4-(4-cyclobutylpiperazin-1-yl)-7-(2-methylpentanoyl)-5,6,7,8-tetrahydropyrido[3,4-d]pyrimidine], the inhibition at 4 µM is at least 90%.

`O=C(/C=C/c1ccccc1)N1CCc2c(ncnc2N2CCN(C3CCC3)CC2)C1` [Compound 62, 4-(4-cyclobutylpiperazin-1-yl)-7-[(2E)-3-phenylprop-2-enoyl]-5,6,7,8-tetrahydropyrido[3,4-d]pyrimidine]: the inhibition at 4 µM is at least 90%.

In the case of `COc1ccc(C(=O)N2CCc3c(ncnc3N3CCN(C4CCC4)CC3)C2)cc1Cl` [Compound 63, 7-(3-chloro-4-methoxybenzoyl)-4-(4-cyclobutylpiperazin-1-yl)-5,6,7,8-tetrahydropyrido[3,4-d]pyrimidine], the inhibition at 4 µM was at least 90%.

Values taken from patent publication US20080051387A1, “TETRAHYDROPYRIDO[3,4-D]PYRIMIDINES AND RELATED ANALOGUES” (priority 2006, published 2008).
